This note sets out measurements from patent EP0951284B1, “[…] DERIVATIVES” (priority 1996, dated 1998).

Structures can show the parent of a compound that is named as a salt.

For assay [1], the system named is mice. Put plainly: Survival time of mice in hypobaric hypoxic episode. It counts as in vivo. The text has this: The model is based on that described in Nakanishi, M. et al. Life Sci. (1973) 13: 467; Oshiro, et al., J. Med. Chem. (1991) 34: 2004-2013; and US Patent 4,788,130.
A 12 liter desiccator (desiccator A) and a 2.5 liter desiccator (desiccator B) were separately connected to a vacuum pump. Desiccator B was disconnected and allowed to equilibrate with room air whilst desiccator A was evacuated to a pressure of 100mmHg. Four male ICR albino mice (22-28g) were placed in desiccator B. Desiccator B was then closed to room air and connected to desiccator A. The pressure inside desiccator B was monitored using a mercury manometer and at the point the pressure in desiccator B reached 200mmHg (usually within 14 seconds), the two desiccators were disconnected from the vacuum pump and the pump switched off. The survival time from the moment of induction of hypoxia to the time of cessation of respiration was recorded. for each mouse for a maximum of 15 minutes after which time room air was reintroduced to desiccator B. Survivors were monitored for signs of lethargy or vitality.
Effect of drug treatment was assessed as the percent of the survival time of the drug treated group with respect to the saline injected or vehicle injected control group. Control groups were run twice, before and after each experimental group and consisted of 8 mice in groups of 4 mice to ensure a constant residual volume of oxygen in all tests. The effect of each dose of test drug was determined in duplicate i.e. two groups of 4 mice.
Positive reference drugs were sodium pentobarbital at a dose of 40 mg/kg, and diazepam 10 mg/kg given 0.5h prior to hypoxia, physostigmine 0.2 and 0.4 mg/kg and neostigmine 0.2 mg/kg given sc 30 min before hypoxia. Methyl atropine 1 mg/kg was given sc. 10 min. before physostigmine.
The volume of injection was 0.2-0.3 mL per mouse (10 mL/kg). The initial dose was about one third of the reported LD50 for acetylcholine esterase inhibition. If no protection could be obtained, the dose was further increased to the nearest non-toxic dose. In case of protection, the dose was further reduced in an attempt to locate the "protective" dose range.

The target of assay [2] is T1, Human erythrocyte acetylcholinesterase (Homo sapiens, UniProt P22303).
T1 construct: Human erythrocyte acetylcholinesterase (type XIII, Sigma Israel); purchased Sigma Israel type XIII; host or cells: human erythrocytes
T1 sequence (P22303 32-617 isoform P22303-2 limits assumed): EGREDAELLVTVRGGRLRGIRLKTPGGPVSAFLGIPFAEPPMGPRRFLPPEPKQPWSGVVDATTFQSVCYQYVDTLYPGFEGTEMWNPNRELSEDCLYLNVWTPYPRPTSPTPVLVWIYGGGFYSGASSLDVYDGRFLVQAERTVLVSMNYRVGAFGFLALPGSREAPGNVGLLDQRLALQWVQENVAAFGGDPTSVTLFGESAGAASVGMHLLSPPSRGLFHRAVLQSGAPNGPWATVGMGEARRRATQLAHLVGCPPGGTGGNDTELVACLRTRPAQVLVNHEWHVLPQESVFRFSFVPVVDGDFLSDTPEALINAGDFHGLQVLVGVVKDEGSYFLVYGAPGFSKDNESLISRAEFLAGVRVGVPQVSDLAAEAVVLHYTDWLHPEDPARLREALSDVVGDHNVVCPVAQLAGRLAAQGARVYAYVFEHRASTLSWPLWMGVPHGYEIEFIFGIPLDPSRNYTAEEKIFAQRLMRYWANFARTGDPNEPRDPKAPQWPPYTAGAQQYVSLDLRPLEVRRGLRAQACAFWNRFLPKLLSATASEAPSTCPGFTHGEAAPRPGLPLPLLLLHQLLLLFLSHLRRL
Briefly: In vitro measurement of acetylcholinesterase (AChE) inhibition (Ellman method). Particulars: at time of peak activity, incubation 15 to 60 minutes at 37°C. It counts as biochemical. The procedure:
Human erythrocyte acetylcholinesterase (type XIII, Sigma Israel), was prepared in a stock solution of 1U/ml, containing Triton (1%) and bovine serum albumin (0.05%) in phosphate buffer (pH 8). The enzyme (0.05U) was incubated with 3-5 different concentrations of test compound (in triplicate) for periods of from 15 to 60 minutes at 37°C. […] The percentage inhibition of AChE by each concentration of drug is calculated by comparison with that of enzyme in the absence of drug.

For a further assay, the target named is T2, MAO-B (Rattus norvegicus, UniProt P19643).
T2 sequence (P19643 1-520): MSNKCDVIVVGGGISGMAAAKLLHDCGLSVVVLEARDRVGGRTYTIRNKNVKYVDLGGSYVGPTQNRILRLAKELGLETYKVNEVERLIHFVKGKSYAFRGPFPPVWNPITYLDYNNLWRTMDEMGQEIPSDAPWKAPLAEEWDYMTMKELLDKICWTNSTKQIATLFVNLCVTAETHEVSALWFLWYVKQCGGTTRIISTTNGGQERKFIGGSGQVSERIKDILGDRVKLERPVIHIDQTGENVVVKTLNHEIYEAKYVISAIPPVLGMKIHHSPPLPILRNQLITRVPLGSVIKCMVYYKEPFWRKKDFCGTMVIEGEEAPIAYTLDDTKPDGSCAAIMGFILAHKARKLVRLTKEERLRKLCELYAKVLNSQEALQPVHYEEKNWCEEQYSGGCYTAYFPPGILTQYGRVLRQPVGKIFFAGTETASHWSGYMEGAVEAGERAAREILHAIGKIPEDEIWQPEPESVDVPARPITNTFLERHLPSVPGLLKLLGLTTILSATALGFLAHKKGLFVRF
Put plainly: Inhibition of MAO activity following sub-acute (14 days) administration to rats, MAO-B. Format: in vivo. Further details: from tissue; host or cells: brain, liver and intestine of Sprague Dawley rats. Particulars: 20mg/kg daily for 14 days. The procedure:
Male Sabra mice, weighing 45-50g were injected with test compound solutions (prepared in 0.9% saline). Each dose was administered to two or three mice. The mice were sacrificed two hours after drug administration or at a time corresponding to the peak AChE inhibition time (see Table 6). The brain and liver were rapidly dissected and stored in appropriate vials on ice. The tissues were weighed, diluted to 1/20 in sucrose 0.3M and stored at -20°C before performance of the MAO assay described above. The results given in Table 6 relate to measurements made on brain tissue only.
Experiments were done with Spague Dawley male rats. Procedures were repeated as described in Examples 2.1 and 2.2, but drug administration was continued daily for 14 days. At the end of this period animals were sacrificed and MAO levels determined in the brain, liver and intestines. Compound 17 was administered sub-cutaneously or per os at a dose of 20mg/kg.

For assay [3], the system named is mice. Put plainly: Closed head injury (CHI) in mice: motor function, neurological severity score (NSS). Format: in vivo. Particulars: sc at ED50 for acetylcholinesterase inhibition, once 15 min after CHI. The procedure: The procedure for closed head injury followed was as described for rats in Shohami et al. (J. Neurotrauma (1993) 10(2) 109-119) with changes as described.
Animals: Male Sabra mice (Hebrew University strain) weighing 34-40g were used. They were housed in groups of 10 per cage, in a 12hr:12hr light:dark cycle. Food and water were provided ad libitum.
Trauma was induced under ether anesthesia. A longitudinal incision was performed in the skin covering the skull and the skin retracted to expose the skull. The head was fixed manually at the lower plane of the impact apparatus. A weight of 333g was delivered by an electric device from a height of 3cm to the left hemisphere, 1-2mm lateral to the midline in the midcoronal plane.
One point was awarded for the lack of a tested reflex or for the inability to perform the tasks outline in the Table. The maximal score that can be reached at 1 hour post-CHI is 25 points and 21 at later times. The difference in NSS at 1hr and at any other time reflects the recovery, and is referred to as NSS. An NSS score of 15-19 at 1hr denotes severe injury, 11-14 moderate injury and less than 10 mild injury.

Where [4] appears, read: 4.1 mg/kg sc, 60 min before hypoxia.
The mark [5] stands for this setting: 6.2 mg/kg sc, 60 min before hypoxia.

Take `C#CCNC(C)Cc1cccc(OC(=O)N(C)C)c1` (centres unmarked) [Compound 16]: the “Protection (% of control)” value in the assay on mice [1] (setting [4]) is 335±202 % of control; in the assay on mice [1] (setting [5]) it was 324±155 % of control; in the assay on mice [1] (15 mg/kg sc, 60 min before hypoxia), “toxic”. The same compound came in with a concentration for half-maximal inhibition (IC50) in assay [2] of 370 nM.

With `C#CCNCCc1cccc(OC(=O)N(C)C)c1` [Compound 11], the “Protection (% of control)” value with mice [1] (2 mg/kg sc, 30 min before hypoxia) is given as 302±212 % of control; in the assay with mice [1] (2 mg/kg sc, 60 min before hypoxia), 128±40 % of control; with mice [1] (4.1 mg/kg sc, 30 min before hypoxia), 501±201 % of control; in the assay on mice [1] (setting [4]), 416±211 % of control; with mice [1] (setting [5]) it was 331±168 % of control. Further, 820 nM corresponded to half-maximal inhibition in assay [2] (IC50).

As for `C#CCNC(C)Cc1cccc(OC(=O)N(C)CC)c1` (stereo not drawn) [Compound 17, 3-(N-Me,N-Etcarbamyloxy)α-methyl, N-propargyl phenethylamine.HCl], the “Protection (% of control)” value is listed as 149±44 % of control with mice [1] (31 mg/kg sc, 60 min before hypoxia); 419±122 % of control in the assay with mice [1] (62 mg/kg sc, 60 min before hypoxia); 281±158 % of control in the assay with mice [1] (94 mg/kg sc, 60 min before hypoxia). For the same compound, the inhibition at 20 mg/kg against MAO-B (po, Brain) is 72%; against MAO-B (po, Intestine), 40%; on MAO-B (po, Liver) it was 74%; at MAO-B (sc, Brain), 87%; against MAO-B (sc, Intestine), 33%; against MAO-B (sc, Liver), 51%. This compound had an IC50 in assay [2] of 36000 nM. Besides, the “ΔNSS, 24 hr post-CHI” value in the assay with mice [3] (saline 4.75±0.17) was 5.58±0.38. For the same compound, the “ΔNSS, 7 days post-CHI” value in the assay on mice [3] (saline 5.83±0.36) is listed as 6.92±0.36. Further, the “ΔNSS, 14 days post-CHI” value in the assay on mice [3] (saline 5.96±0.4) stood at 7.83±0.53.

For the compound `C#CCN(C)CCc1cccc(OC(=O)N(C)C)c1` [Compound 12], the “Protection (% of control)” value in the assay with mice [1] (4.5 mg/kg sc, 60 min before hypoxia) is reported as 97±36 % of control; with mice [1] (7 mg/kg sc, 60 min before hypoxia), 217±120 % of control. Moreover, the IC50 in assay [2] was 880 nM.
